Data: PubChem BioAssay AID256 (DTP/NCI, 2004)
Several values for one entry are separate records, joined by “and”; a condition that tells them apart may be missing. Equal values may be shown once. Toxic doses and inconclusive results are not listed. The calls were made as follows: active = survival T/C of 150% or more; inactive = T/C below 125% in these data.

Test system: CD2F1 mice, L1210 leukemia ip, survival T/C
Test: NCI In Vivo Anticancer Drug Screen. Data for tumor model L1210 Leukemia (intraperitoneal) in CD2F1 (CDF1) mice
Details: higher = longer survival
How it was run: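 Read-out first: treated-group measurement over vehicle-control measurement, expressed as a ratio. Animals bore a transplanted tumor line and were dosed with compound or vehicle.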

[1] = endpoint: mean survival time, dose: 12.5 mg/kg/injection, schedule: Q01DX005 (ip), vehicle: distilled water + Tween-80
[2] = endpoint: mean survival time, dose: 25.0 mg/kg/injection, schedule: Q01DX005 (ip), vehicle: distilled water + Tween-80
[3] = endpoint: mean survival time, dose: 50.0 mg/kg/injection, schedule: Q01DX005 (ip), vehicle: distilled water + Tween-80
[4] = endpoint: mean survival time, dose: 100.0 mg/kg/injection, schedule: Q01DX005 (ip), vehicle: distilled water + Tween-80
[5] = endpoint: mean survival time, dose: 5.0 mg/kg/injection, schedule: Q01DX009 (ip), vehicle: saline
[6] = endpoint: mean survival time, dose: 10.0 mg/kg/injection, schedule: Q01DX009 (ip), vehicle: saline
[7] = endpoint: mean survival time, dose: 20.0 mg/kg/injection, schedule: Q01DX009 (ip), vehicle: saline
[8] = endpoint: mean survival time, dose: 100.0 mg/kg/injection, schedule: Q04DX002 (ip), vehicle: saline with Tween-80
[9] = endpoint: mean survival time, dose: 100.0 mg/kg/injection, schedule: Q01DX009 (ip), vehicle: saline with Tween-80
[10] = endpoint: mean survival time, dose: 200.0 mg/kg/injection, schedule: Q01DX009 (ip), vehicle: saline with Tween-80
[11] = endpoint: mean survival time, dose: 100.0 mg/kg/injection, schedule: Q04DX003 (ip), vehicle: saline
[12] = endpoint: mean survival time, dose: 200.0 mg/kg/injection, schedule: Q04DX003 (ip), vehicle: saline
[13] = endpoint: mean survival time, dose: 400.0 mg/kg/injection, schedule: Q04DX003 (ip), vehicle: saline
[14] = endpoint: mean survival time, dose: 100.0 mg/kg/injection, schedule: Q04DX003 (ip), vehicle: saline with Tween-80
[15] = endpoint: mean survival time, dose: 200.0 mg/kg/injection, schedule: Q04DX003 (ip), vehicle: saline with Tween-80
[16] = endpoint: mean survival time, dose: 400.0 mg/kg/injection, schedule: Q04DX003 (ip), vehicle: saline with Tween-80

Measured: T/C

COc1ccc(Nc2ncnc3c2ncn3C2OC(CO)C(O)C2O)cc1 (centres undefined)
inactive: endpoint: mean survival time, dose: 6.25 mg/kg/injection, schedule: Q01DX005 (ip), vehicle: distilled water + Tween-80 101 % of control | [1] 102 % of control and 96 % of control | [2] 104 % of control and 96 % of control | [3] 91 % of control | [4] 102 % of control | endpoint: mean survival time, dose: 200.0 mg/kg/injection, schedule: Q01DX005 (ip), vehicle: distilled water + Tween-80 100 % of control

O=C(CCN1CCCCC1)c1ccccc1
inactive: [5] 115 % of control | [6] 114 % of control | [7] 102 % of control

COc1ccccc1N=Nc1c(O)n(-c2ccccc2OC)c(=S)n(-c2ccc(Br)cc2)c1=O
inactive: endpoint: mean survival time, dose: 25.0 mg/kg/injection, schedule: Q04DX002 (ip), vehicle: saline with Tween-80 100 % of control | endpoint: mean survival time, dose: 50.0 mg/kg/injection, schedule: Q04DX002 (ip), vehicle: saline with Tween-80 100 % of control | [8] 95 % of control

CN1C(=O)CC(c2ccc(NC(=O)N(CCCl)N=O)cc2)C1=O (centres undefined)
active: endpoint: mean survival time, dose: 12.5 mg/kg/injection, schedule: Q01DX001 (ip), vehicle: distilled water + Tween-80 155 % of control and 160 % of control | endpoint: mean survival time, dose: 25.0 mg/kg/injection, schedule: Q01DX001 (ip), vehicle: distilled water + Tween-80 183 % of control and 196 % of control
inactive: endpoint: mean survival time, dose: 50.0 mg/kg/injection, schedule: Q01DX001 (ip), vehicle: distilled water + Tween-80 95 % of control

Cc1ccc(Nc2nc(N)nc3c2ncn3C2OC(CO)C(O)C2O)cc1 (centres undefined)
inactive: [1] 95 % of control | [2] 90 % of control | [3] 98 % of control | [4] 108 % of control

CC(/C=C/C1OC(=O)C=CC1C)=C\C(C)C/C=C/C(C)=C/C(C)C(=O)C(C)C(O)C(C)C/C(C)=C/C(=O)O (centres undefined)
inactive: endpoint: median survival time, dose: 9.0 micrograms/kg/injection, schedule: Q01DX009 (ip), vehicle: saline + alcohol 106 % of control | endpoint: median survival time, dose: 15.0 micrograms/kg/injection, schedule: Q01DX009 (ip), vehicle: saline + alcohol 119 % of control | endpoint: median survival time, dose: 18.0 micrograms/kg/injection, schedule: Q01DX005 (ip), vehicle: alcohol 110 % of control | endpoint: median survival time, dose: 18.0 micrograms/kg/injection, schedule: Q01DX005 (ip), vehicle: saline + alcohol 106 % of control | endpoint: median survival time, dose: 25.0 micrograms/kg/injection, schedule: Q01DX009 (ip), vehicle: saline + alcohol 117 % of control | endpoint: median survival time, dose: 30.0 micrograms/kg/injection, schedule: Q01DX005 (ip), vehicle: alcohol 110 % of control | endpoint: median survival time, dose: 30.0 micrograms/kg/injection, schedule: Q01DX005 (ip), vehicle: saline + alcohol 107 % of control | endpoint: median survival time, dose: 50.0 micrograms/kg/injection, schedule: Q01DX005 (ip), vehicle: alcohol 115 % of control | endpoint: median survival time, dose: 50.0 micrograms/kg/injection, schedule: Q01DX005 (ip), vehicle: saline + alcohol 108 % of control | endpoint: median survival time, dose: 83.33 micrograms/kg/injection, schedule: Q01DX005 (ip), vehicle: alcohol 115 % of control | endpoint: median survival time, dose: 83.33 micrograms/kg/injection, schedule: Q01DX005 (ip), vehicle: saline + alcohol 116 % of control | endpoint: median survival time, dose: 138.89 micrograms/kg/injection, schedule: Q01DX005 (ip), vehicle: alcohol 122 % of control | endpoint: median survival time, dose: 138.89 micrograms/kg/injection, schedule: Q01DX005 (ip), vehicle: saline + alcohol 111 % of control

CCOC(=O)N1CCc2nc3ccccc3cc21
inactive: endpoint: mean survival time, dose: 50.0 mg/kg/injection, schedule: Q01DX001 (ip), vehicle: other 106 % of control | endpoint: mean survival time, dose: 100.0 mg/kg/injection, schedule: Q01DX001 (ip), vehicle: other 109 % of control | endpoint: mean survival time, dose: 200.0 mg/kg/injection, schedule: Q01DX001 (ip), vehicle: other 97 % of control

Cc1cc2oc(=O)c(Cl)c(NCCO)c2c(C)c1Cl
inactive: endpoint: mean survival time, dose: 100.0 mg/kg/injection, schedule: Q01DX001 (ip), vehicle: saline with Tween-80 98 % of control | endpoint: mean survival time, dose: 200.0 mg/kg/injection, schedule: Q01DX001 (ip), vehicle: saline with Tween-80 98 % of control | endpoint: mean survival time, dose: 400.0 mg/kg/injection, schedule: Q01DX001 (ip), vehicle: saline with Tween-80 93 % of control

Cc1cc2ncn(CC(=O)O)c2cc1C
inactive: [9] 98 % of control | [10] 93 % of control

CCCCCCCCCCCCCCCCNCC(O)CN (centres undefined)
inactive: endpoint: mean survival time, dose: 12.5 mg/kg/injection, schedule: Q04DX002 (ip), vehicle: saline 95 % of control | endpoint: mean survival time, dose: 25.0 mg/kg/injection, schedule: Q04DX002 (ip), vehicle: saline 106 % of control | endpoint: mean survival time, dose: 50.0 mg/kg/injection, schedule: Q04DX002 (ip), vehicle: saline 103 % of control

C=CC(=O)NC12CC3CC(CC(C3)C1)C2
inactive: [11] 100 % of control | [12] 101 % of control | [13] 101 % of control

CCn1c(-c2cccc(N)c2)cc(=O)n1-c1ccccc1
inactive: [14] 98 % of control | [15] 96 % of control | [16] 90 % of control

S=C=Nc1ccccn1
inactive: [8] 86 % of control | endpoint: mean survival time, dose: 200.0 mg/kg/injection, schedule: Q04DX002 (ip), vehicle: saline with Tween-80 101 % of control

Cc1[nH]c2cc([N+](=O)[O-])ccc2c1[N+](=O)[O-]
inactive: endpoint: mean survival time, dose: 75.0 mg/kg/injection, schedule: Q01DX001 (ip), vehicle: saline 97 % of control and 108 % of control | endpoint: mean survival time, dose: 150.0 mg/kg/injection, schedule: Q01DX001 (ip), vehicle: saline 103 % of control and 100 % of control | endpoint: mean survival time, dose: 300.0 mg/kg/injection, schedule: Q01DX001 (ip), vehicle: saline 93 % of control

OCc1cc(Cl)cc(Cl)c1OCc1ccccc1
inactive: endpoint: mean survival time, dose: 100.0 mg/kg/injection, schedule: Q04DX002 (ip), vehicle: other 101 % of control | endpoint: mean survival time, dose: 200.0 mg/kg/injection, schedule: Q04DX002 (ip), vehicle: other 101 % of control | endpoint: mean survival time, dose: 400.0 mg/kg/injection, schedule: Q04DX002 (ip), vehicle: other 101 % of control

CCC1(C)CCC2C(=CCC3C(C)(C(=O)O)CCCC23C)C1 (centres undefined)
inactive: [14] 103 % of control | [15] 88 % of control | [16] 89 % of control

O=C1CC(c2ccccc2)C(c2ccccc2)N1Cc1ccccc1 (centres undefined)
inactive: endpoint: mean survival time, dose: 100.0 mg/kg/injection, schedule: Q04DX003 (ip), vehicle: other 93 % of control | endpoint: mean survival time, dose: 200.0 mg/kg/injection, schedule: Q04DX003 (ip), vehicle: other 93 % of control | endpoint: mean survival time, dose: 400.0 mg/kg/injection, schedule: Q04DX003 (ip), vehicle: other 97 % of control

NNC(=O)C1C2CCCCC21 (centres undefined)
inactive: endpoint: mean survival time, dose: 25.0 mg/kg/injection, schedule: Q01DX009 (ip), vehicle: saline with Tween-80 94 % of control | endpoint: mean survival time, dose: 50.0 mg/kg/injection, schedule: Q01DX009 (ip), vehicle: saline with Tween-80 97 % of control | [9] 97 % of control

CC12CCC(=O)C=C1CCC1C2C(=O)CC2(C)C1CCC2(O)C(=O)Cn1ccc(=O)[nH]c1=O (centres undefined)
inactive: endpoint: mean survival time, dose: 12.5 mg/kg/injection, schedule: Q04DX003 (ip), vehicle: Klucel (hydroxypropylcellulose) (HPC) 91 % of control | endpoint: mean survival time, dose: 25.0 mg/kg/injection, schedule: Q04DX003 (ip), vehicle: Klucel (hydroxypropylcellulose) (HPC) 101 % of control | endpoint: mean survival time, dose: 50.0 mg/kg/injection, schedule: Q04DX003 (ip), vehicle: Klucel (hydroxypropylcellulose) (HPC) 98 % of control | endpoint: mean survival time, dose: 100.0 mg/kg/injection, schedule: Q04DX003 (ip), vehicle: Klucel (hydroxypropylcellulose) (HPC) 96 % of control | endpoint: mean survival time, dose: 200.0 mg/kg/injection, schedule: Q04DX003 (ip), vehicle: Klucel (hydroxypropylcellulose) (HPC) 98 % of control

O=Cc1ccc(/C=C2\C=Cc3ccccc32)cc1
inactive: [9] 101 % of control | [10] 94 % of control | endpoint: mean survival time, dose: 400.0 mg/kg/injection, schedule: Q01DX009 (ip), vehicle: saline with Tween-80 103 % of control

CCOC(=O)C(=CCBr)C(=O)OCC
inactive: endpoint: mean survival time, dose: 1.56 mg/kg/injection, schedule: Q01DX009 (ip), vehicle: other 100 % of control | endpoint: mean survival time, dose: 3.13 mg/kg/injection, schedule: Q01DX009 (ip), vehicle: other 100 % of control | endpoint: mean survival time, dose: 6.25 mg/kg/injection, schedule: Q01DX009 (ip), vehicle: other 107 % of control | endpoint: mean survival time, dose: 12.5 mg/kg/injection, schedule: Q01DX009 (ip), vehicle: other 100 % of control | endpoint: mean survival time, dose: 25.0 mg/kg/injection, schedule: Q01DX009 (ip), vehicle: other 102 % of control

CCC(O)C(C)(C)[N+](=O)[O-] (centres undefined)
inactive: [5] 95 % of control | [6] 98 % of control | [7] 98 % of control

CC(=O)NS(=O)(=O)c1ccc(NC(=O)/C=C/C(=O)O)cc1
inactive: [11] 100 % of control | [12] 100 % of control | [13] 100 % of control

C=CCNc1ncnc2c1cnn2C
inactive: [11] 106 % of control | [12] 104 % of control

CN1CCCCCC1
inactive: [14] 100 % of control | [15] 111 % of control
